Columns and labels:
[1] = test system: control sera (pooled serum of ten healthy LUMC hospital workers; commercial negative donor pooled serum from the Dutch bloodbank); type: binding, human; design: Binding of Control serum LUMC to linear peptides / Binding of Control serum Blood-bank to linear peptides / Binding of Control serum LUMC to looped peptides / Binding of Control Serum Blood-Bank to Looped peptides / Binding of Control serum LUMC to linear peptides of the protein M of SARS-CoV Urbani / Binding of Control serum Blood-bank to linear peptides of the protein M of SARS-CoV Urbani / Binding of Control serum LUMC to looped peptides of the protein M of SARS-CoV Urbani / Binding of Control Serum Blood-Bank to Looped peptides of the protein M of SARS-CoV Urbani: unit not given here
[2] = test system: rabbit serum obtained by immunizing a rabbit with the SARS-CoV strain Frankfurt 1; type: binding; design: Binding of a rabbit serum to linear peptides / Binding of a rabbit serum to looped peptides / Rabbit serum linear peptides / Rabbit serum looped peptides / Binding of a rabbit serum to linear peptides of protein N of SARS-CoV Urbani (Rabbit serum linear peptides) / Binding of a rabbit serum to looped/cyclic peptides of protein N of SARS-CoV Urbani (Rabbit serum looped peptides): unit not given here
[3] = test system: recombinant human anti-SARS-CoV antibody 03-018; type: binding; design: Binding of antibody 03-018 to linear peptides of the N protein of SARS-CoV Urbani / Binding of antibody 03-018 to looped/cyclic peptides of the N protein of SARS-CoV Urbani: unit not given here
[4] = test system: antibodies in sera from SARS patients (sera 1a, 1b, 2, 6, 37, 62, London, SARS-yellow, SARS-green); type: binding, human; design: Binding of serum 6 to linear peptides of protein X1 of SARS-CoV Urbani / Binding of serum 37 to linear peptides of protein X1 of SARS-CoV Urbani / Binding of serum 6 to looped/cyclic peptide (PEPSCAN-ELISA) / Binding of serum 37 to looped/cyclic peptide (PEPSCAN-ELISA) / Binding of serum 37 to looped/cyclic peptides of protein X1 of SARS-CoV Urbani / Binding of serum 6 to linear peptides of protein X2 / Binding of serum 37 to linear peptides of protein X2 / Binding of serum 37 to looped/cyclic peptides of protein X2 of SARS-CoV Urbani / Binding of serum 6 to linear peptides of protein M of SARS-CoV Urbani / Binding of serum 37 to linear peptides of protein M of SARS-CoV Urbani / Binding of serum 6 to looped/cyclic peptides of protein M of SARS-CoV Urbani / Binding of serum 37 to looped/cyclic peptides of protein M of SARS-CoV Urbani / Binding of serum 6 to linear peptides of protein X3 of SARS-CoV Urbani / Binding of serum 37 to linear peptides of protein X3 of SARS-CoV Urbani / Binding of serum 37 to looped/cyclic peptides of protein X3 of SARS-CoV Urbani / Binding of serum 6 to linear peptides of protein X4 of SARS-CoV Urbani / Binding of serum 37 to linear peptides of protein X4 of SARS-CoV Urbani / Binding of serum 37 to looped/cyclic peptides of protein X4 of SARS-CoV Urbani / Binding of serum 6 to linear peptides of protein X5 of SARS-CoV Urbani / Binding of serum 37 to linear peptides of protein X5 of SARS-CoV Urbani / Binding of serum 37 to looped/cyclic peptides of protein X5 of SARS-CoV Urbani / Binding of serum 6 to linear peptides of protein N of SARS-CoV Urbani / Binding of serum 37 to linear peptides of protein N of SARS-CoV Urbani / Binding of serum 6 to linear peptide (PEPSCAN-ELISA) / Binding of serum 1a to looped/cyclic peptides of protein N of SARS-CoV Urbani / Binding of serum 1b to looped/cyclic peptides of protein N of SARS-CoV Urbani / Binding of serum 2 to looped/cyclic peptides of protein N of SARS-CoV Urbani / Binding of serum 6 to looped/cyclic peptides of protein N of SARS-CoV Urbani / Binding of serum 37 to looped/cyclic peptides of protein N of SARS-CoV Urbani / Binding of serum 62 to looped/cyclic peptides of protein N of SARS-CoV Urbani / Binding of serum London to looped/cyclic peptides of protein N of SARS-CoV Urbani / Binding of serum SARS-green to looped/cyclic peptides of protein N of SARS-CoV Urbani: unit not given here

| Sequence | Binding of a rabbit serum to linear peptides of protein N of SARS-CoV Urbani (Rabbit serum linear peptides) [2] | Binding of a rabbit serum to looped/cyclic peptides of protein N of SARS-CoV Urbani (Rabbit serum looped peptides) [2] | Binding of antibody 03-018 to linear peptides of the N protein of SARS-CoV Urbani [3] | Binding of antibody 03-018 to looped/cyclic peptides of the N protein of SARS-CoV Urbani [3] | Binding of serum 1a to linear peptides of protein N of SARS-CoV Urbani [4] | Binding of serum 1a to looped/cyclic peptides of protein N of SARS-CoV Urbani [4] | Binding of serum 1b to linear peptides of protein N of SARS-CoV Urbani [4] | Binding of serum 1b to looped/cyclic peptides of protein N of SARS-CoV Urbani [4] | Binding of serum 2 to linear peptides of protein N of SARS-CoV Urbani [4] | Binding of serum 2 to looped/cyclic peptides of protein N of SARS-CoV Urbani [4] | Binding of serum 6 to linear peptides of protein N of SARS-CoV Urbani [4] | Binding of serum 6 to looped/cyclic peptides of protein N of SARS-CoV Urbani [4] | Binding of serum 37 to linear peptides of protein N of SARS-CoV Urbani [4] | Binding of serum 37 to looped/cyclic peptides of protein N of SARS-CoV Urbani [4] | Binding of serum 62 to linear peptides of protein N of SARS-CoV Urbani [4] | Binding of serum 62 to looped/cyclic peptides of protein N of SARS-CoV Urbani [4] | Binding of serum London to linear peptides of protein N of SARS-CoV Urbani [4] | Binding of serum London to looped/cyclic peptides of protein N of SARS-CoV Urbani [4] | Binding of serum SARS-green to linear peptides of protein N of SARS-CoV Urbani [4] | Binding of serum SARS-green to looped/cyclic peptides of protein N of SARS-CoV Urbani [4] | further results |
| --- | --- | --- | --- | --- | --- | --- | --- | --- | --- | --- | --- | --- | --- | --- | --- | --- | --- | --- | --- | --- | --- |
| ATEGALNTPKDHIGT | 0.1 | 0.1 | 0.1 | 0.2 | 0.2 | 0.3 | 0.1 | 0.2 | 0.3 | 0.4 | 0.1 | 0.2 | 0.7 | 0.4 | 0.7 | 0.3 | 0.5 | 0.3 | 0.4 | 0.3 | Binding of Control Serum Blood-Bank to Looped peptides [1]: 0.5; Binding of Control serum Blood-bank to linear peptides [1]: 0.8; Binding of Control serum LUMC to linear peptides [1]: 0.7; Binding of Control serum LUMC to looped peptides [1]: 0.5; Binding of serum SARS-yellow to linear peptides of protein N of SARS-CoV Urbani [4]: 0.6; Binding of serum SARS-yellow to looped/cyclic peptides of protein N of SARS-CoV Urbani [4]: 0.2 |
| ATRRVRGGDGKMKEL | 0.3 | 0.3 | 0.1 | 0.2 | 0.3 | 0.2 | 0.1 | 0.1 | 0.3 | 0.2 | 0.3 | 0.1 | 0.8 | 0.4 | 0.7 | 0.3 | 0.5 | 0.3 | 0.3 | 0.1 | Binding of Control Serum Blood-Bank to Looped peptides [1]: 0.5; Binding of Control serum Blood-bank to linear peptides [1]: 0.7; Binding of Control serum LUMC to linear peptides [1]: 0.7; Binding of Control serum LUMC to looped peptides [1]: 0.5; Binding of serum SARS-yellow to linear peptides of protein N of SARS-CoV Urbani [4]: 0.6; Binding of serum SARS-yellow to looped/cyclic peptides of protein N of SARS-CoV Urbani [4]: 0.4 |
| DDFSRQLQNSMSGAS | 0.5 | 0.3 | 0.2 | 0.2 | 0.2 | 0.3 | 0.1 | 0.1 | 0.2 | 0.3 | 0.2 | 0.1 | 0.8 | 0.4 | 0.7 | 0.3 | 0.7 | 0.2 | 0.4 | 0.2 | Control Serum Blood-Bank Looped peptides [1]: 0.3; Control serum Blood-bank linear peptides [1]: 0.8; Control serum LUMC linear peptides [1]: 0.6; Control serum LUMC looped peptides [1]: 0.3; Binding of serum SARS-yellow to linear peptides of protein N of SARS-CoV Urbani [4]: 0.6; Binding of serum SARS-yellow to looped/cyclic peptides of protein N of SARS-CoV Urbani [4]: 0.1 |
| DEAQPLPQRQKKQPT | 0.1 | 0.0 | 0.1 | 0.2 | 0.2 | 0.2 | 0.2 | 0.1 | 0.3 | 0.2 | 0.3 | 0.1 | 0.8 | 0.3 | 0.7 | 0.2 | 1.5 | 0.3 | 0.6 | 0.0 | Control Serum Blood-Bank Looped peptides [1]: 0.3; Control serum Blood-bank linear peptides [1]: 0.7; Control serum LUMC linear peptides [1]: 0.8; Control serum LUMC looped peptides [1]: 0.3; Binding of serum SARS-yellow to linear peptides of protein N of SARS-CoV Urbani [4]: 1.6; Binding of serum SARS-yellow to looped/cyclic peptides of protein N of SARS-CoV Urbani [4]: 0.2 |

From patent publication US20070128217A1 (priority 2003, published 2007)
